Measured values as given in US20260041679A1, “METHOD OF TREATING HYPERTENSION WITH THE ALDOSTERONE SYNTHASE INHIBITOR BAXDROSTAT” (CINCOR PHARMA, INC., priority 2022, published 2026).
Read-outs that look alike come from different tables or passages of the source.

Experiments:
[1] = Pharmacokinetics in subjects with moderate hepatic impairment vs normal hepatic function (Example 5); assay type: in vivo, human; conditions: for CL renal / Cmax / AUC(0-inf) / Tmax: human, oral, 10 mg; for CL renal: plasma and urine, read-out: CLR, geometric mean (% CV) (converted); for CL renal / Cmax / AUC(0-inf) / Tmax / CL/F, geometric mean (% CV): single 10 mg; for Cmax / AUC(0-inf) / Tmax: plasma; for Cmax: read-out: Cmax, geometric mean (% CV); for AUC(0-inf): read-out: AUC(0-inf), geometric mean (% CV); for Tmax: read-out: Tmax, arithmetic mean (SD)
Protocol: Subjects with moderate hepatic impairment (Child-Pugh Category B, n=10) and healthy controls (n=10) were each given a single 10 mg oral dose of baxdrostat. Subjects were matched by age, sex, body mass index, race, and smoking status. Serial blood and urine samples were collected to determine plasma and urine concentrations of baxdrostat for 7 days postdose. Safety was assessed based on adverse events, clinical laboratory evaluations, vital signs, electrocardiogram and physical examinations.

[2] = Study 124 Part 1: safety, adverse events and serum potassium; assay type: in vivo, human
Excerpt: The safety objectives for both Parts 1 and 2 are to evaluate vital signs, standing blood pressure, heart rate, physical examinations, ECG, body weight, and clinical laboratory assessments, including standard safety chemistry panel, hematology, coagulation, and urinalysis.

[3] = Single ascending dose study, safety and tolerability (Example 1); assay type: in vivo; conditions: single dose 1 to 360 mg
Protocol: Eighty-eight healthy male volunteers completed the first-in-human study of baxdrostat. In part 1 of the trial, subjects received a single oral dose of baxdrostat ranging from 1 to 360 mg in order to evaluate safety, tolerability, PK, and pharmacodynamics (PD). Part 2 evaluated the PK of a single 3 mg intravenous dose of baxdrostat.

[4] = Safety in subjects with varying degrees of renal function (Example 4); assay type: in vivo, human
Protocol: Safety was assessed throughout the study based on adverse events, physical examinations, ECG, seated and orthostatic vital signs, weight measurements, and clinical laboratory evaluations

[5] = moderate hepatic impairment vs normal hepatic function
[6] = Part 1, 0.5 mg baxdrostat, n = 63
[7] = Part 1, 1 mg baxdrostat, n = 62
[8] = Part 1, 2 mg baxdrostat, n = 60
[9] = control eGFR ≥60 mL/min (n = 10)
[10] = moderate to severe renal impairment (n = 11)
[11] = single 10 mg, all renal function groups

Work on `CCC(=O)N[C@@H]1CCCc2c(-c3ccc4c(c3)CCC(=O)N4C)cncc21` [baxdrostat, (R)—N-(4-(1-methyl-2-oxo-1,2,3,4-tetrahydroquinolin-6-yl)-5,6,7,8-tetrahydroisoquinolin-8-yl) propionamide] yielded a CL renal ([1]; moderate hepatic impairment) of 4.98 mL/min, a CL renal ([1]; normal hepatic function) of 6.02 mL/min and a Cmax ([1]; moderate hepatic impairment (n = 10)) of 119 ng/mL. For the same compound, the AUC(0-inf) ([1]; moderate hepatic impairment) was 3570 ng·h/mL, the Tmax ([1]; moderate hepatic impairment) was 2.15 h and the Cmax ([1]; normal hepatic function (n = 10)) was 104 ng/mL. The AUC(0-inf) ([1]; normal hepatic function) was 3780 ng·h/mL, the Tmax ([1]; normal hepatic function) was 2.55 h and the “AUC(0-inf), ratio of GLSM (90% CI)” value [1, 5] was 0.95 (0.73, 1.23). For the same compound, the “Cmax, ratio of GLSM (90% CI)” value [1, 5] was 1.1 (0.97, 1.32), the “CL/F, geometric mean (% CV)” value ([1]; moderate hepatic impairment) was 2.80 (30.1) L/hr and the “CL/F, geometric mean (% CV)” value ([1]; normal hepatic function) was 2.64 (24.7) L/hr. The “Mean Change in Serum Potassium From Baseline at Week 8 (SD)” value (“Mean Change … (SD)” below) ([2]; 0.5 mg) was −0.07 (0.37) mmol/L, the “Mean Change … (SD)” value ([2]; 1 mg) was 0.26 (0.47) mmol/L and the “Mean Change … (SD)” value ([2]; 2 mg) was 0.12 (0.48) mmol/L. The “increase in mean potassium” value ([2]; 2 mg dose) was 0.1 mEq/L, the “potassium elevations>6.2 mEq/L” value ([2]; Part 1) was “No potassium elevations>6.2 mEq/L were recorded” and the “share of patients receiving baxdrostat with potassium>6 mEq/L” value ([2]; Part 1) was roughly 1.6%. For the same compound, the “treatment emergent SAEs” value ([2]; Part 1) was “two treatment emergent SAEs (2 patients) and neither were deemed related to baxdrostat”, the “patients with isolated instances of moderately elevated potassium>6 mEq/L” value ([2]; Part 1, all baxdrostat doses) was “Three” and the “AESI, %” value [2, 6] was 1.6%. For the same compound, the “AESI, e - Number of events” value [2, 6] was 1, the “AESI, n - Number of subjects” value [2, 6] was 1 and the “SAEs, %” value [2, 6] was 0.0%. For the same compound, the “SAEs, e - Number of events” value [2, 6] was 0, the “SAEs, n - Number of subjects” value [2, 6] was 0 and the “TEAEs Drug-Related, %” value [2, 6] was 6.3%. The “TEAEs Drug-Related, e - Number of events” value [2, 6] was 6, the “TEAEs Drug-Related, n - Number of subjects” value (“TEAEs Drug-Related, n” below) [2, 6] was 4 and the “TEAEs Leading to death, %” value [2, 6] was 0.0%. For the same compound, the “TEAEs Leading to death, e - Number of events” value (shortened to “TEAEs Leading to death, e”) [2, 6] was 0, the “TEAEs Leading to death, n - Number of subjects” value (“TEAEs Leading to death, n” for short) [2, 6] was 0 and the “TEAEs Leading to dosing discontinuation, %” value [2, 6] was 1.6%. The “TEAEs Leading to dosing discontinuation, e - Number of events” value [2, 6] was 1, the “TEAEs Leading to dosing discontinuation, n - Number of subjects” value [2, 6] was 1 and the “TEAEs Leading to study discontinuation, %” value [2, 6] was 1.6%. For the same compound, the “TEAEs Leading to study discontinuation, e - Number of events” value [2, 6] was 1, the “TEAEs Leading to study discontinuation, n - Number of subjects” value [2, 6] was 1 and the “TEAEs, %” value [2, 6] was 28.6%. For the same compound, the “TEAEs, e - Number of events” value [2, 6] was 30, the “TEAEs, n - Number of subjects” value [2, 6] was 18 and the “AESI, %” value [2, 7] was 1.6%. For the same compound, the “AESI, e - Number of events” value [2, 7] was 1, the “AESI, n - Number of subjects” value [2, 7] was 1 and the “SAEs, %” value [2, 7] was 1.6%. For the same compound, the “SAEs, e - Number of events” value [2, 7] was 1, the “SAEs, n - Number of subjects” value [2, 7] was 1 and the “TEAEs Drug-Related, %” value [2, 7] was 9.7%. For the same compound, the “TEAEs Drug-Related, e - Number of events” value [2, 7] was 10, the “TEAEs Drug-Related, n” value [2, 7] was 6 and the “TEAEs Leading to death, %” value [2, 7] was 0.0%. For the same compound, the “TEAEs Leading to death, e” value [2, 7] was 0, the “TEAEs Leading to death, n” value [2, 7] was 0 and the “TEAEs Leading to dosing discontinuation, %” value [2, 7] was 3.2%. The “TEAEs Leading to dosing discontinuation, e - Number of events” value [2, 7] was 2, the “TEAEs Leading to dosing discontinuation, n - Number of subjects” value [2, 7] was 2 and the “TEAEs Leading to study discontinuation, %” value [2, 7] was 0.0%. The “TEAEs Leading to study discontinuation, e - Number of events” value [2, 7] was 0, the “TEAEs Leading to study discontinuation, n - Number of subjects” value [2, 7] was 0 and the “TEAEs, %” value [2, 7] was 30.6%. The “TEAEs, e - Number of events” value [2, 7] was 42, the “TEAEs, n - Number of subjects” value [2, 7] was 19 and the “AESI, %” value [2, 8] was 6.7%. The “AESI, e - Number of events” value [2, 8] was 4, the “AESI, n - Number of subjects” value [2, 8] was 4 and the “SAEs, %” value [2, 8] was 1.7%. The “SAEs, e - Number of events” value [2, 8] was 1, the “SAEs, n - Number of subjects” value [2, 8] was 1 and the “TEAEs Drug-Related, %” value [2, 8] was 10.0%. For the same compound, the “TEAEs Drug-Related, e - Number of events” value [2, 8] was 8, the “TEAEs Drug-Related, n” value [2, 8] was 6 and the “TEAEs Leading to death, %” value [2, 8] was 1.7%. The “TEAEs Leading to death, e” value [2, 8] was 1, the “TEAEs Leading to death, n” value [2, 8] was 1 and the “TEAEs Leading to dosing discontinuation, %” value [2, 8] was 3.3%. For the same compound, the “TEAEs Leading to dosing discontinuation, e - Number of events” value [2, 8] was 2, the “TEAEs Leading to dosing discontinuation, n - Number of subjects” value [2, 8] was 2 and the “TEAEs Leading to study discontinuation, %” value [2, 8] was 1.7%. The “TEAEs Leading to study discontinuation, e - Number of events” value [2, 8] was 1, the “TEAEs Leading to study discontinuation, n - Number of subjects” value [2, 8] was 1 and the “TEAEs, %” value [2, 8] was 23.3%. For the same compound, the “TEAEs, e - Number of events” value [2, 8] was 27, the “TEAEs, n - Number of subjects” value [2, 8] was 14 and the “hyperkalemia leading to trial discontinuation” value ([2]; active Baxdrostat groups) was “No instances of hyperkalemia led to trial discontinuation”. For the same compound, the “deaths, serious adverse events, dose-limiting adverse events” value [3] was “no deaths, serious adverse events, or dose-limiting adverse events”, the side effects [3] was “mild and included headache, nasopharyngitis, and diarrhea” and the “Diarrhea, n (%)” value ([4]; Total (n = 33)) was 1 (3.0) n (%). The “Metabolic encephalopathy, n (%)” value ([4]; Total (n = 33)) was 1 (3.0) n (%), the “Subjects with any TEAEs, n (%)” value ([4]; Total (n = 33)) was 2 (6.1) n (%) and the “Tremor, n (%)” value ([4]; Total (n = 33)) was 1 (3.0) n (%). The “Diarrhea, n (%)” value [4, 9] was 1 (10.0) n (%), the “Metabolic encephalopathy, n (%)” value [4, 9] was 0 (0.0) n (%) and the “Subjects with any TEAEs, n (%)” value [4, 9] was 1 (10.0) n (%). The “Tremor, n (%)” value [4, 9] was 0 (0.0) n (%), the “Diarrhea, n (%)” value ([4]; kidney failure (n = 12)) was 0 (0.0) n (%) and the “Subjects with any TEAEs, n (%)” value ([4]; kidney failure (n = 12)) was 1 (8.3) n (%). The “Metabolic encephalopathy, n (%)” value ([4]; kidney failure (n = 12), considered severe and unrelated to the study drug) was 1 (8.3) n (%), the “Tremor, n (%)” value ([4]; kidney failure (n = 12), unrelated to the study drug) was 1 (8.3) n (%) and the “Diarrhea, n (%)” value [4, 10] was 0 (0.0) n (%). The “Metabolic encephalopathy, n (%)” value [4, 10] was 0 (0.0) n (%), the “Subjects with any TEAEs, n (%)” value [4, 10] was 0 (0.0) n (%) and the “Tremor, n (%)” value [4, 10] was 0 (0.0) n (%). For the same compound, the “deaths and drug-related treatment-emergent adverse events” value [4, 11] was “no deaths and only one mild drug-related treatment-emergent adverse event (diarrhea)” and the “laboratory values, vital signs, physical examinations, ECGs” value [4, 11] was “no clinically meaningful changes”.
